Data on three molecules can be found in US7202084B2, “Beta-alanine N-methyltransferase” (University of Florida Research Foundation, Inc., priority 2001, dated 2007).

For assay [1], the target named is T1, L. latifolium NMTase (Limonium latifolium, UniProt Q84N56).
T1 sequence (Q84N56 1-375): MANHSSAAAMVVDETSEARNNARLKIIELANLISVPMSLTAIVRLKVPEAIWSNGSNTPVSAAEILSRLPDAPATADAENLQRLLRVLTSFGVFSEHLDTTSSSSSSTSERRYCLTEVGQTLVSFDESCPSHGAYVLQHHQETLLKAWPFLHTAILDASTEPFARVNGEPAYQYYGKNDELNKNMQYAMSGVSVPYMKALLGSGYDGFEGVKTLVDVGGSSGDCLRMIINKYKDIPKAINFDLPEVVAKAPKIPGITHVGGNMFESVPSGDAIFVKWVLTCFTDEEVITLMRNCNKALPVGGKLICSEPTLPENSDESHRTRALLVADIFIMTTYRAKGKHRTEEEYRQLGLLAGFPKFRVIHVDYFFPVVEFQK
Description: Kinetic characterization of NMTase, radiometric assay. In kind it is biochemical. How it is done:
Enzyme Assay. […] Following incubation at 30° C. for 30 minutes, the reactions were stopped by the addition of 10 μL of 10% (w/v) trichloroacetic acid containing 1 mM of methylated products as unlabeled carrier. Activated charcoal (38 mg.ml^-1) in 0.1 N acetic acid, 250 μL per assay, was added and centrifuged for five minutes. The radioactive product in the supernatant was quantified in 75% Ready Gel using a liquid scintillation counter (Beckman Instruments, Fullerton, Calif.). […] Kinetic Characterization. […] Kinetic constants were derived from the X and Y intercepts of a linear plot of s/v versus s drawn from triplicate assay results. Henderson, P J F (1993) Statistical analysis of enzyme kinetic data. In […]., Enzyme assays a practical approach, IRL Press, Oxford, pp. 276-316.

Assay [2] has as its target T1, L. latifolium NMTase. In words: Effect of a thiol reagent on NMTase activities. In kind it is biochemical. Conditions: for % Activity DM: N,N-dimethyl β-alanine as methyl acceptor; for % Activity DM / % Activity MM / % Activity BA: mean ± SE, n=3; for % Activity MM: N-methyl β-alanine as methyl acceptor; for % Activity BA: β-alanine as methyl acceptor. How it is done:
Enzyme Assay. […] The assay mixture contained 54 μL of enzyme preparation in a total volume of 100 μL containing 0.1 M Tris-HCl buffer pH 8.0, 2 mM DTT, 10 mM methyl acceptor, 100 μM AdoMet and 0.027 μM S-Adenosyl-L-[methyl-^3H]Met (200 nCi of radioactivity). Following incubation at 30° C. for 30 minutes, the reactions were stopped by the addition of 10 μL of 10% (w/v) trichloroacetic acid containing 1 mM of methylated products as unlabeled carrier. Activated charcoal (38 mg.ml^−1) in 0.1 N acetic acid, 250 μL per assay, was added and centrifuged for five minutes. The radioactive product in the supernatant was quantified in 75% Ready Gel using a liquid scintillation counter (Beckman Instruments, Fullerton, Calif.). The counting efficiency was 30%.
Effect of a Thiol Reagent. Protein purified using PEG precipitation was assayed with or without added DTT in the presence and absence of the thiol reagent p-hydroxymercuribenzoic acid.

The mark [3] stands for this setting: 0.2 mM pHMB 10 min + 5 mM DTT for 30 min, relative to control.
[4] abbreviates: Minus DTT plus 0.2 mM pHMB, relative to control with 5 mM DTT.

Consider `C[S+](CC[C@H](N)C(=O)[O-])C[C@H]1O[C@@H](n2cnc3c(N)ncnc32)[C@H](O)[C@@H]1O` (stereo partly drawn) [Ado-Met, S-adenosyl-L-methionine], for which the “Concentration above which substrate inhibition was exhibited” value at L. latifolium NMTase [1] (at 10 mM β-alanine) is “above 200 μM”.

As for `Nc1ncnc2c1ncn2[C@@H]1O[C@H](CSCC[C@H](N)C(=O)O)[C@@H](O)[C@H]1O` [AdoHCy, S-adenosyl-L-homocysteine], the “Inhibition of NMTase (in words)” value at L. latifolium NMTase [1] was “highly inhibitory”. In addition, the IC50 at L. latifolium NMTase [1] (read-out: Concentration giving 50% inhibition of NMTase, 10 mM β-alanine and 100 μM Ado-Met) was determined as 40 µM.

For `O=C(O)c1cc[c]([Hg+])cc1.[OH-]` [pHMB, p-hydroxymercuribenzoate], on L. latifolium NMTase [2], the “Inhibition of NMTase (in words)” value was “highly inhibited” and the “Reversibility of the inhibition by DTT” value is recorded as “partially reversible”. On L. latifolium NMTase [2] (setting [3]), the “% Activity DM” value was found to be 55.2 ± 7.6%, the “% Activity MM” value is on record as 23.0 ± 2.9% and the “% Activity BA” value is recorded as 22.6 ± 2.9%. For the same molecule, at L. latifolium NMTase [2] (setting [4]), the “% Activity DM” value came to 0.4 ± 0.2%, the “% Activity MM” value is 2.4 ± 1.4% and the “% Activity BA” value stood at 1.3 ± 0.7%.
